Test results as given in PubChem BioAssay AID720589 (Broad Institute, 2013).
Activity calls are given as the source filed them.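 How the source made its calls: active means fitted curve drops below -35% activity at a concentration within twice the top valid tested dose; inconclusive means no clear call, values can overlap the other calls; inactive means signal rising instead of falling, among other cases.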

assay: ATP-based viability loss in HepG2 cells – cell-based, CellTiter-Glo luminescence, cherry-pick, set 3, cytotoxicity control, dose response (AID 720589); conditions: HepG2 viability, ATP luminescence (CellTiter-Glo), 72 h; at 0.011 µM; stronger effect = lower value; 0% = untreated, negative = ATP loss

| SMILES | max activity |
| --- | --- |
| C(=C\c1ccc(C2[C@H]3CNC[C@@H]2N3Cc2ccccn2)cc1)/c1ccccc1 (stereo partly drawn) | -23.3% (inactive) |
| COc1ccc(C(=O)OCC(=O)Nc2ccc(Cl)c(C(F)(F)F)c2)c(OC)c1OC | -15% (inactive) |
| CC(=O)Nc1cccc(-c2ccnc3c2CC(C)(C(=O)NCc2ccc(N(C)C)cc2)O3)c1 (stereo not drawn) | 32.9% (inactive) |
| O=C(NCc1ccc(F)cc1)N1[C@H]2CC[C@@H]1C=C(c1ccc(F)cc1OCc1ccccc1)C2 | 21.9% (inactive) |
| COc1ccc(/C=C2/NC(=O)N(CC(=O)Nc3cccc(C)c3)C2=O)cc1O | 18.1% (inactive) |
| CC(C)c1ccc(OCc2cccc(C(=O)N/N=C/c3cccnc3)c2)cc1 | 8.88% (inactive) |
| CCOC(=O)c1c(-c2ccc(C)cc2)csc1NC(=O)CCN1CCOCC1 | 41.8% (inactive) |
| COC(=O)C[C@@H]1CC[C@@H]2[C@H](COc3ccc(NC(=O)c4cc(F)cc(F)c4)cc3C(=O)N2C)O1 | -46.8% (inactive) |
| N#Cc1cccc(-c2ccc(C3[C@@H]4CN(C(=O)Cc5ccncc5)C[C@H]3N4)cc2)c1 (stereo partly drawn) | 21% (inactive) |
| C/C=C/c1ccc([C@H]2[C@@H](CO)N3C(=O)CN(S(=O)(=O)c4cccc(F)c4)C[C@@H]23)cc1 | 26.3% (inactive) |
| COC(=O)C[C@@H]1CC[C@@H]2[C@H](COc3ccc(NC(=O)c4ccc(C(F)(F)F)cc4)cc3C(=O)N2C)O1 | -32.2% (inactive) |

same assay, conditions: HepG2 viability, ATP luminescence (CellTiter-Glo), 72 h; at 0.035 µM; stronger effect = lower value; 0% = untreated, negative = ATP loss

| SMILES | max activity |
| --- | --- |
| CN1c2ccc(-c3ccc(C#N)cc3)cc2[C@H]2[C@H](CCN2S(=O)(=O)c2cccc(F)c2)[C@H]1CO | -29.8% (inactive) |
| CCc1ccc(/C=C2\SC(=S)N(CCC(=O)Nc3cc(C)on3)C2=O)cc1 | -25.9% (inactive) |
| COc1ccc(/C=C2\SC(=S)N(CCCC(=O)NNC(=O)c3ccccc3O)C2=O)cc1 | -21.1% (inactive) |
| COc1ccc(/C=C2\SC(=O)N(CCCC(=O)Nc3ccc(C(=O)O)cc3)C2=O)cc1 | 21% (inactive) |
| CC1(C)Oc2cc3oc(-c4cc(O)cc(O)c4)cc3cc2CC1O (stereo not drawn) | -28.3% (inactive) |
| N#CC1C=Cc2c(ccc3ccccc23)N1C(=O)c1ccccc1 (stereo not drawn) | -32.3% (inactive) |
| C[C@@H]1CN([C@H](C)CO)S(=O)(=O)c2ccc(C#Cc3ccncc3)cc2O[C@@H]1CN(C)C(=O)Nc1ccc2c(c1)OCO2 | -31.9% (inactive) |
| Nc1ncn([C@@H]2O[C@H](CO)[C@@H](O)[C@H]2O)c(=O)n1 | 16% (inactive) |

same assay, conditions: HepG2 viability, ATP luminescence (CellTiter-Glo), 72 h; at 0.1 µM; stronger effect = lower value; 0% = untreated, negative = ATP loss

| SMILES | max activity |
| --- | --- |
| COc1ccc(C/C(N)=N/OC(C)=O)cc1OC | -33.4% (inactive) |
| COCCOC(=O)N1C(=O)[C@@]2(c3cc(C#CCC(C(=O)OC)C(=O)OC)ccc31)[C@H](c1ccccc1OCCO)N1[C@H](c3ccccc3)[C@H](c3ccccc3)OC(=O)[C@H]1[C@@H]2C(=O)N1CCN(c2ncccn2)CC1 | -30.6% (inactive) |
| CC(=O)Nc1cc(C(=O)NCc2ccco2)ccc1Sc1ccc(F)cc1 | -21.9% (inactive) |
| COc1cccc(S(=O)(=O)N(C)C[C@H]2OCc3cnnn3CCCC(=O)N([C@@H](C)CO)C[C@H]2C)c1 | -29.1% (inactive) |
| CCCNC(=O)N1[C@H](C#N)[C@H](c2ccc(C#Cc3ccc(F)cc3)cc2)[C@H]1CO | -28.6% (inactive) |
| COc1ccc(OC)c(-c2cc(C(F)(F)F)c3c(n2)sc2c(O)cc(=O)[nH]c23)c1 | -37% (inactive) |

same assay, conditions: HepG2 viability, ATP luminescence (CellTiter-Glo), 72 h; at 0.3 µM; stronger effect = lower value; 0% = untreated, negative = ATP loss

| SMILES | max activity |
| --- | --- |
| CN(C)c1ccc(N=Nc2ccc(C(=O)O)cc2)cc1 | -28.7% (inactive) |
| COC(=O)C[C@@H]1CC[C@@H]2[C@@H](COc3ccc(NC(=O)Nc4ccccc4C)cc3C(=O)N2C)O1 | -23.1% (inactive) |
| COCc1cc(C)nc2sc(C(=O)NCCO)c(-n3cccc3)c12 | 7.49% (inactive) |
| COc1ccc(/C=C2\Oc3ccccc3C2=O)cc1 | 21% (inactive) |
| COc1ccc(S(=O)(=O)N2CCCc3nc(-c4ccc(F)cc4)ccc32)cc1 | -23.5% (inactive) |
| C[C@H]1CN([C@@H](C)CO)C(=O)c2cc(NS(=O)(=O)c3ccc(Cl)cc3)ccc2O[C@H]1CN(C)Cc1ccc(Cl)c(Cl)c1 | -20.4% (inactive) |
| Cc1ccc(/C=C2\SC(=S)N(CCC(=O)NNC(=O)c3ccccc3O)C2=O)cc1 | -42.1% (inactive) |

same assay, conditions: HepG2 viability, ATP luminescence (CellTiter-Glo), 72 h; at 0.35 µM; stronger effect = lower value; 0% = untreated, negative = ATP loss

| SMILES | max activity |
| --- | --- |
| COC(=O)C[C@@H]1CC[C@H]2[C@H](COc3ccc(NC(=O)Nc4cc(C)cc(C)c4)cc3C(=O)N2C)O1 | 15% (inactive) |

same assay, conditions: HepG2 viability, ATP luminescence (CellTiter-Glo), 72 h; at 0.9 µM; stronger effect = lower value

| SMILES | max activity |
| --- | --- |
| COC(=O)[C@H]1[C@H](CO)[C@H]2Cn3c(ccc(-c4ccccc4F)c3=O)[C@@H]1N2CC1CCCC1 | -23.4% (inactive) |

same assay, conditions: HepG2 viability, ATP luminescence (CellTiter-Glo), 72 h; at 0.9 µM; stronger effect = lower value; 0% = untreated, negative = ATP loss

| SMILES | max activity |
| --- | --- |
| N#C[C@H]1[C@H](c2ccc(-c3ccccc3F)cc2)[C@@H](CO)N1C(=O)c1ccccn1 | -27.4% (inactive) |
| CCc1ccc2oc(C(=O)N3CCN(c4ccccc4OC)CC3)cc(=O)c2c1 | -16.2% (inactive) |
| Cc1ccc(NC(=O)COC(=O)c2ccc3c(c2)OCO3)cc1S(=O)(=O)N1CCCCC1 | -30.2% (inactive) |
| O=c1oc2cc(O)ccc2s1 | -35.6% (inactive) |
| Cc1c(Cl)cccc1NC(=O)CCC(=O)N/N=C/c1ccc[nH]1 | 21.7% (inactive) |

same assay, conditions: HepG2 viability, ATP luminescence (CellTiter-Glo), 72 h; at 2.6 µM; stronger effect = lower value; 0% = untreated, negative = ATP loss

| SMILES | max activity |
| --- | --- |
| COC(=O)C[C@@H]1CC[C@@H]2[C@H](COc3ccc(NC(=O)c4cccc(Cl)c4)cc3C(=O)N2C)O1 | -17.7% (inactive) |

same assay, conditions: HepG2 viability, ATP luminescence (CellTiter-Glo), 72 h; at 2.85 µM; stronger effect = lower value; 0% = untreated, negative = ATP loss

| SMILES | max activity |
| --- | --- |
| C[C@H](CO)N1C[C@H](C)[C@H](CN(C)Cc2ccc(C(=O)Nc3ccccc3N)cc2)Oc2ccc(NS(=O)(=O)c3cccs3)cc2C1=O | -29.1% (inactive) |
| O=C1c2ccc3c4c(ccc(c24)C(=O)N1c1cccc(O)c1)C(=O)N(c1cccc(O)c1)C3=O | -25.5% (inactive) |
| CN=c1scc(-c2ccccc2F)n1/N=C/c1ccc(O)c(O)c1O | -42.6% (inactive) |
| Cc1ccccc1N=Nc1c(O)n(C)c2ccccc12 | -14.8% (inactive) |
| O=C(CN1C(=O)C(=O)c2ccccc21)c1ccc(Cl)cc1 | -20.2% (inactive) |
| CCCc1nc2ccc(NC(=O)c3cccs3)cc2c(=O)n1Cc1ccccc1Cl | -32.5% (inactive) |
| CC(C)NC(=O)N(C)C[C@@H]1Oc2cc(C#Cc3ccc(F)cc3)ccc2S(=O)(=O)N([C@H](C)CO)C[C@H]1C | -21.1% (inactive) |

same assay, conditions: HepG2 viability, ATP luminescence (CellTiter-Glo), 72 h; at 8 µM; stronger effect = lower value; 0% = untreated, negative = ATP loss

| SMILES | max activity |
| --- | --- |
| CN(C)c1ccc(-c2ccnc3c2CC(C)(C(=O)NCc2ccco2)O3)cc1 (stereo not drawn) | -25.6% (inactive) |
| COc1ccc(C2=Nn3c([n+](C)c4ccccc43)SC2)cc1 | -28.7% (inactive) |
| COC(=O)C[C@H]1CC[C@@H](NC(=O)Nc2ccc(C(F)(F)F)cc2)[C@H](CO)O1 | -14.3% (inactive) |
| COc1ccccc1NC(=O)N1[C@@H]2CNC[C@H]1[C@@H]2c1ccc(-c2ccc(C#N)cc2)cc1 | -24.4% (inactive) |
| COC(=O)C[C@@H]1CC[C@@H]2[C@@H](COc3ccc(NC(=O)Nc4cccc(Cl)c4)cc3C(=O)N2C)O1 | -33.7% (inactive) |
| O=C(Cc1nn[nH]n1)c1ccccc1O | -19.1% (inactive) |
| Cc1ccc(-c2ccc3c(c2)O[C@@H](CN(C)C(=O)Nc2ccc(F)cc2)[C@H](C)CN([C@@H](C)CO)S3(=O)=O)cc1 | -53.8% (inactive) |

same assay, conditions: HepG2 viability, ATP luminescence (CellTiter-Glo), 72 h; at 26 µM; stronger effect = lower value; 0% = untreated, negative = ATP loss

| SMILES | max activity |
| --- | --- |
| N#C[C@H]1N[C@H](CO)[C@H]1c1ccc(C#Cc2ccc(F)cc2)cc1 | -31.2% (inactive) |
| Cc1ccc(/C=C/C(=O)N2CCN(S(=O)(=O)c3c(C)c(C)cc(C)c3C)CC2)o1 | -14.8% (inactive) |
| O=C(NCc1cccnc1)C1Cc2c(-c3ccc(Cl)cc3)ccnc2O1 (stereo not drawn) | -18.3% (inactive) |
| CCC1=Nc2cc(C(=O)NCC3CCCO3)ccc2Sc2ccc(Br)cc21 (stereo not drawn) | -32.3% (inactive) |
